Results taken from publication PMC9663589, “Anti-tumor effects of P-LPK-CPT, a peptide-camptothecin conjugate, in colorectal cancer” (Communications Biology, 2022).
“Also recorded” adds a separate entry of the source. Where two headings read alike, the source gives them in different places. No end group written: not given here.

Columns and labels:
[1] = system: patient-derived CRC xenograft; experiment: CRC patient-derived xenograft (PDX) therapeutic evaluation; type: in vivo, human xenograft in mice; details: HE staining
HCT116 cells [2] = experiment: EdU incorporation assay (DNA synthesis); type: cell-based, human
Procedure: (§1) 96-well plates were seeded at 3000 cells per well and exposed to different treatments. 50 μM EdU labeling medium (RiboBio) was added and incubated for 2 h at 37 °C. The cells were then fixed with 4% […] for 10 min. After being washed with PBS, cells were stained with anti-EdU working solution for 30 min and stained with Hoechst33342 for 10 min. Cells were observed using fluorescent microscopy. The percentage of EdU-positive cells was calculated from five random fields in three wells.

LoVo cells = experiment: EdU incorporation assay (DNA synthesis); type: cell-based, human
Procedure: as §1

NCM460 cells = experiment: EdU incorporation assay (DNA synthesis); type: cell-based, human
Procedure: as §1

intestine and liver = experiment: Organ histology (Supplementary Fig. 6); type: in vivo, mouse
[3] = system: Cleaved caspase 3 in colon tissues; experiment: Cleaved caspase 3 immunofluorescence in colon tissues (GI toxicity); type: in vivo, mouse; details: PDX mice, CPT eq. 3 mg/kg iv twice a week, colon tissue
HCT116 tumors [4] = experiment: HCT116 xenograft therapeutic evaluation; details: CPT 5 mg/kg iv twice a week
Procedure: Female BALB/c nude mice (4–6 weeks with weights of 18–22 g) were obtained from Shanghai Super-B&K Laboratory Animal Corp. Ltd. (Shanghai, China) and kept in specific pathogen free, temperature-controlled isolation. All animal studies were conducted in accordance with the principles and procedures outlined in the Guide for the Care and Use of Laboratory Animals and were approved by Ethics committee. To generate the HCT116 and U87 tumor model, about 1 × 10^6 tumor cells were subcutaneously injected into the right front flank of 4 weeks old athymic nude mice.
The HCT116 tumor-bearing mice were randomly divided into 4 groups (n = 7 for each group). […] The tumors were measured by a vernier caliper twice a week. The weights of the mice were recorded. Then, the mice were sacrificed at the 28th day. The tumors were dissected and weighted. The tumor volumes were calculated to evaluate the therapeutic efficacy.

HCT116 cells [5] = experiment: Endocytosis inhibition assay (FITC-P-LPK internalization); type: cell-based, human; details: 10 µM, 30 min pre-treatment, then FITC-P-LPK 2 h; NC vs CPZ p = 0.0001
Procedure: Fig. 6 P-LPK bound to SLC1A5 and entered CRC cells through endocytosis. a, b Western blotting analysis of SLC1A5 in NCM460, HCT116, LoVo, SW480, HT29 and Colo320HSR cells. After knocking down SLC1A5 in HCT116 and HT29, the binding intensity of FITC-P-LPK to cells was observed by confocal microscopy. Bar, 10 μm. c, d Effects of different endocytosis inhibitors on the internalization of FITC-P-LPK. HCT116 cells were pre-treated with 10 µM chlorpromazine, 50 μM methyl-β-cyclodextrin, 20 µM Amiloride hydrochloride for 30 min at 37 °C. Subsequently, the cells were incubated with FITC-P-LPK for 2 h. Then the fluorescence intensity was observed by confocal microscopy and detected using a multi-well plate reader (n = 5, means ± SD, NC vs CPZ, p = 0.0001; NC vs MβCD, p = 0.9069; NC vs EIPA, p = 0.9812) (****p < 0.0001). Bar, 10 μm. e The competition experiment with SLC1A5 substrates glutamine. FITC-P-LPK was incubated with increasing concentrations (0–32 mM) of glutamine in HCT116 cells at 37 °C for 2 h. The fluorescence intensity was measured in a multi-well plate reader (n = 5, means ± SD).
Chlorpromazine (CPZ), amiloride (AMI), and methyl-β-cyclodextrin (MCD) were purchased from MedChem Express. […] Then the fluorescence intensity was detected using a multi-well plate reader (BioTek synergy4) and observed by confocal laser scanning microscopy.

HCT116 cells [6] = experiment: FITC-peptide binding, confocal fluorescence intensity; type: cell-based, human; details: FITC labeled, immunofluorescence
Procedure: NCM460, Colo320HSR, HCT116, LoVo, HT29 and SW480 cells were respectively incubated with FITC-labeled P-LPK (Random peptide P-CON) peptides for 2 h at 37 °C and washed with PBS for three times. The cells were fixed with 4% paraformaldehyde for 30 min at room temperature, and then 4,6-diamidino-2-phenylindole (DAPI) was used for nucleic acid stain. A laser scanning confocal microscope was used to visualize the cells. The fluorescence intensity was analyzed using the Image-Pro Plus 6.0 software. For cell localization experiment, 20 μg/ml rhodamine-labeled peptides were incubated with NCM460 and HCT116 for 2 h, and then washed with PBS for three times. After that, the cell membrane was stained with a blue cell membrane probe (Thermo Fisher Scientific, Cat. No. W11263). The binding of Rhodamine-P-LPK to cells and their localization in cells was observed under a confocal microscope.

recombinant SLC1A5 [7] = molecular target: T1, recombinant SLC1A5 (Homo sapiens, UniProt Q15758); experiment: Surface plasmon resonance, Biacore T200; type: binding; details: Biacore T200, CM5 chip, peptide 25–400 μM, 1×PBS with 5% DMSO, 0.05% Tween 20, pH 7.4; read-out: KD (SPR)
T1 sequence (Q15758 1-541): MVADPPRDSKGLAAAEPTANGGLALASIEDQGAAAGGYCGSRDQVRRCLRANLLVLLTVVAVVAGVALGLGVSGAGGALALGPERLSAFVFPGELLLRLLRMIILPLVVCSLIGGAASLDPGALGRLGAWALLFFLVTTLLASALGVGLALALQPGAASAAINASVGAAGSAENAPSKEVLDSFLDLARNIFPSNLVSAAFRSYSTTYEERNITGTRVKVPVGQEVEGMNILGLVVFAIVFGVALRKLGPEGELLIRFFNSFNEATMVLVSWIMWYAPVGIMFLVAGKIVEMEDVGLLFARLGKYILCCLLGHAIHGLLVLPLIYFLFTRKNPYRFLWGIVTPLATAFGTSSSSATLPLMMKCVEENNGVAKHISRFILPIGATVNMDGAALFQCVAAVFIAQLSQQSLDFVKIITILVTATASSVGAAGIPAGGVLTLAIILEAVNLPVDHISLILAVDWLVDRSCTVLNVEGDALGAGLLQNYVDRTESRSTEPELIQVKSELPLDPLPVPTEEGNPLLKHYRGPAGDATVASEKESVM
Procedure: A surface plasmon resonance-based method using the Biacore T200 platform was developed to detect the binding of peptide (25–400 μM) to recombinant SLC1A5. The sensor chip CM5, 1 × PBS (2 mM KH2PO4, 10 mM Na2HPO4, 137 mM NaCl, 2.7 mM KCl) with 5% DMSO, 0.05% Tween 20 buffer (pH 7.4), and the amine coupling kit (which includes EDC, NHS, and ethanolamine reagents) were all obtained from GE Healthcare. The sensor chip CM5 was activated using EDC and NHS reagents, according to the standard procedure for amine coupling. 20 μg/ml SLC1A5 (about 10 μg proteins in 0.5 ml 10 mM Sodium Acetate buffer) was then covalently immobilized to the chip surface CM5 under 10 mM Sodium Acetate (pH 4.5) buffer. The resulting differences in resonance units (RU) were about 4000 RU. After de-activation by ethanolamine and washing with 1×PBS with 5% DMSO, 0.05% Tween 20 buffer (pH 7.4), the prepared sensor chip was applied to Biacore T200 for the binding assay. 1×PBS with 5% DMSO, 0.05% Tween 20 buffer (pH 7.4) was used as running buffer. A one-minute injection of a solution of 10 mM Glycine-HCl, pH 3.0 was used to regenerate the chip surface.

in vivo [8] = experiment: in vivo; design: species or system human xenograft in BALB/c nude mice; details: female, BALB/c nude, mouse, iv, 3.7 MBq, total radioactivity, T/NT ratio
Procedure: (§2) To obtain ^68Ga, 0.1 M HCl was used to elute a ^68Ge-^68Ga generator. The radioactivity of eluate was monitored. The radioactive elution peak was collected for ^68Ga radiolabeling experiment. An aliquot of 150 μg of compound P-LPK or P-CON was put in a glass vial and dissolved with 0.2 M sodium acetate/acetic acid buffer, pH 3.8. Then ^68GaCl3 tracer was added, and the pH was adjusted to fall in a range of 3.5~4 with 0.1 M NaOH. The solution was stored at room temperature for 0.5 h. The radiochemical purities of ^68Ga-P-LPK and ^68Ga-P-CON were measured with thin-layer chromatography (TLC), using silica gel-impregnated glass fiber stripe (iTLC SG) and 0.25 M sodium citrate/citric acid buffer as mobile phase. ^68GaCl3 was used as a control.
(§3) Each U87 and HCT116 tumor-bearing mouse was injected in a tail vein with 3.7 MBq (100 μCi, 0.1 nmol in 100 μl) of ^68Ga-P-LPK or ^68Ga-P-CON under isoflurane anesthesia (n = 4 per group). For static PET, 5-min scans were acquired at 30 min, 60 min, and 120 min after injection. The maximum radioactivity concentrations within a tumor or an organ were obtained from mean pixel values within the multiple regions of interest (ROI) volume.

in vivo [9] = experiment: in vivo; design: species or system human xenograft in BALB/c nude mice; details: female, BALB/c nude, mouse, iv, 3.7 MBq, total radioactivity, T/NT ratio; remark: listed apart in the source
Procedure: as §2, §3
(§4) For the blocking experiment, unlabeled P-LPK was first injected into mice (n = 3 per group), and 3.7 MBq ^68Ga-P-LPK was then injected. Static PET images were acquired at 30 min, 60 min and 120 min post-injection.

HCT116 tumors [10] = experiment: in vivo; design: species or system human xenograft in BALB/c nude mice; details: for T/NT ratio, unblock: female, BALB/c nude, mouse, iv, 3.7 MBq
Procedure: as §2, §3, §4

recombinant SLC1A5 [11] = molecular target: T2, recombinant SLC1A5 (UniProt Q15758 1-541); experiment: SPR; Biacore T200; SLC1A5 covalently immobilised by amine coupling on a CM5 chip (about 4000 RU); peptide 25-400 uM as analyte; running buffer 1x PBS with 5% DMSO, 0.05% Tween 20, pH 7.4; details: both partners purified
T2 construct: glutamine transporter solute carrier 1 family member 5 (SLC1A5, ASCT2), recombinant protein; additional methods are in the Supplementary Material; also called solute carrier 1 family member 5; ASCT2
T2 sequence: T1 sequence (Q15758 1-541)

[12] = relative to DMSO = 1, replicate 1
[13] = relative to DMSO = 1, replicate 2
[14] = relative to DMSO = 1, replicate 3

Molecule: CC[C@@]1(O)C(=O)OCc2c1cc1n(c2=O)Cc2cc3ccccc3nc2-1 [CPT, camptothecin]
- Tumor histology (cancer cells in tumor tissue) [1]: almost maintained its original morphological features
- Proportion of cells in the DNA synthesis state (HCT116 cells [2]; [12]): 1.278
- Proportion of cells in the DNA synthesis state (HCT116 cells [2]; [13]): 0.9932
- Proportion of cells in the DNA synthesis state (HCT116 cells [2]; [14]): 0.9243
- Proportion of cells in the DNA synthesis state (LoVo cells; [12]): 0.9805
- Proportion of cells in the DNA synthesis state (LoVo cells; [13]): 0.8341
- Proportion of cells in the DNA synthesis state (LoVo cells; [14]): 1.054
- Proportion of cells in the DNA synthesis state (NCM460 cells; [12]): 1.185
- Proportion of cells in the DNA synthesis state (NCM460 cells; [13]): 1.136
- Proportion of cells in the DNA synthesis state (NCM460 cells; [14]): 0.9381
- Damage to intestine and liver (intestine and liver): significantly increased
- Quantification of Cleaved caspase 3 ([3]; CPT vs P-LPK-CPT p = 0.0051, replicate 1): 24
- Quantification of Cleaved caspase 3 ([3]; replicate 2): 11
- Quantification of Cleaved caspase 3 ([3]; replicate 3): 14
- Quantification of Cleaved caspase 3 ([3]; replicate 4): 10
- Quantification of Cleaved caspase 3 ([3]; replicate 5): 13
- Mortality during treatment (HCT116 tumors [4]): More than half of the mice; also recorded: more than half of mice treated with CPT died of side effects
- Antitumor activity / cytotoxicity (CRC cells; 10 nM (CPT equivalent)): no obvious toxicity to CRC cells
- Antitumor activity / cytotoxicity (CRC cells; 100 nM): obvious cytotoxicity effects

Molecule: CN(C)CCCN1c2ccccc2Sc2ccc(Cl)cc21 [CPZ, chlorpromazine]
- Effect on cellular internalization of FITC-P-LPK (HCT116 cells [5]): exhibited the highest inhibitory effect; also recorded: remarkably decreased the cellular internalization of FITC-P-LPK

Molecule: APATVSSDMSLA [FITC-P-MUT]
- Fluorescence intensity of mutant peptide bound to cells (HCT116 cells [6]): significantly reduced

Molecule: DLPSRTSALASG [P-CON]
- Kd (recombinant SLC1A5 [7]): 126 µM

Molecule: LPKTVSSDMSLN [68Ga-P-LPK, metal not drawn]
- tissue to tissue ratio at 0.5 h (in vivo [8]): 1.68
- tissue to tissue ratio at 1 h (in vivo [8]): 1.47
- tissue to tissue ratio at 2 h (in vivo [8]): 1.28
- tissue to tissue ratio at 0.5 h (in vivo [9]): 2.85
- tissue to tissue ratio at 1 h (in vivo [9]): 2.38
- tissue to tissue ratio at 2 h (in vivo [9]): 1.87
- tissue to tissue ratio at 0.5 h (in vivo [9]; block): 0.41
- tissue to tissue ratio at 1 h (in vivo [9]; block): 1.17
- tissue to tissue ratio at 2 h (in vivo [9]; block): 0.79
- tissue to tissue ratio at 0.5 h (in vivo [9]; unblock): 0.82
- tissue to tissue ratio at 1 h (in vivo [9]; unblock): 2.91
- tissue to tissue ratio at 2 h (in vivo [9]; unblock): 2.31
- T/NT ratios after blocking (HCT116 tumors [10]): significantly reduced
- T/NT ratios vs 68Ga-P-CON (HCT116 tumors [10]): significantly increased
- Tumor binding after pre-injection with unlabeled P-LPK (HCT116 tumors [10]): dramatically attenuated
- T/NT ratio, unblock (HCT116 tumors [10]; 0.5 h): 0.51
- T/NT ratio, unblock (HCT116 tumors [10]; 1 h): 2.47

B1: P-LPK peptide (peptide)
peptide: LPKTVSSDMSLN
notes: twelve-residue peptide selected from an M13 phage-display peptide library on CRC cells; Unlabelled peptide, analyte in the SPR experiment; source: synthetic peptide
- Kd (recombinant SLC1A5 [11]): ~1.19 µM
